{"source": "paper PMC2481421", "about": "“Gene expression response in target organ and whole blood varies as a function of target organ injury phenotype” (Genome Biology, 2008)", "key": {"liver": {"test_system": "liver", "assay": "Liver histopathology (H&E sections of left liver lobe, severity graded) after a single dose", "details": "for level of hepatocellular necrosis: medium dose, 6 hour", "description": "The animals were acclimated for 14 days and observed for absence of disease.\nDoses were determined with pilot experiments. For each chemical, doses that elicited a sub-toxic ('low'), a moderately toxic ('medium') or a overtly toxic ('high') response 24 hours after treatment were selected. […] For each compound, control animal groups were treated with vehicle alone. All animals were fasted for 12-18 hours prior to exposure. Groups of four to six animals were dosed between 8:30 and 9:30 a.m.; thereafter, feed was provided ad libitum. After 6, 24 or 48 hours of treatment, animals were anesthetized by isoflurane anesthesia. Whole blood was collected via retro-orbital plexus for hematology and gene expression analysis. Serum was collected for clinical chemistry. The animals were euthanized while under anesthesia by cervical dislocation and necropsied within 4 minutes of sacrifice. The left liver lobe was promptly removed and two defined cross sections were placed in 10% neutral buffered formalin for subsequent histopathology.\nThe cross sections that were fixed by immersion in 10% neutral buffered formalin (see 'In-life studies' section above) were transferred to histology grade alcohol for 18-24 hours after necropsy. Tissues were then processed, embedded in paraffin, sectioned at 5 microns, and stained with hematoxylin and eosin. A pathologist completed the initial microscopic evaluation of each liver sample for a given compound. […] An independent pathology quality assessment review was performed by a second pathologist on the initial histopathological findings."}, "whole blood": {"test_system": "whole blood", "assay": "Hematology of whole blood (Technicon H*1, differential and reticulocyte counts)", "format": "in vivo, Male Fischer 344/N rats", "details": "rat, 15 mg/kg, 6 hours, animal 5", "procedure": "(§1) Doses were determined with pilot experiments. […] Serum was collected for clinical chemistry.\nBlood was collected in EDTA tubes (BD Microtainer® Tubes). The samples were assayed using the Technicon H*1 hematology analyzer (Bayer Corporation, Tarrytown, NY, USA). The instrument performs white blood cell (WBC) counts by two independent methods. The values must have agreed within 10%. Manual counts and smear estimates were used to confirm values, when necessary. To monitor red blood cell (RBC) parameters, spun microhematocrits were performed for each specimen for comparison with the automated hematocrit (which is calculated from the directly measured RBCs and the mean cell volume). Control products were assayed after every tenth specimen. For WBC differential data, smears were Wright-Giemsa stained using an Ames Hema-Tek II automated slide stainer (Bayer Corporation, Ames Division, Elkhart, IN, USA) and manual WBC differential counts were performed on the first sample in each group. For reticulocyte counts, equal amounts of whole blood and New Methylene Blue stain were allowed to incubate at room temperature for at least 15 minutes. Smears were prepared and read to determine the percent reticulocytes per 1,000 RBCs. The percent value is multiplied by the RBC count to determine the absolute number of reticulocytes per microliter. Additional data file 1 details the values for each of these parameters for every animal."}, "[1]": {"assay": "In-life observations: body weight, gross findings before and at necropsy", "format": "in vivo, Male Fischer 344/N rats", "details": "gavage, corn oil, individual animals", "procedure": "as §1"}, "serum": {"test_system": "serum", "assay": "Serum clinical chemistry (COBAS MIRA)", "format": "in vivo, Male Fischer 344/N rats", "details": "rat, 15 mg/kg, 6 hours, animal 5", "procedure": "as §1\nAt sacrifice, blood was collected in clotting tubes (BD Microtainer® Tubes, BD, Franklin Lakes, NJ, USA) and serum was separated. Clinical chemistry analysis was performed on all rats using a COBAS MIRA (Roche Diagnostics, Montclair, NJ, USA) using commercially available reagents from Equal Diagnostics (Exton, PA, USA) for the following assays: total protein, albumin, cholesterol, creatinine, direct bilirubin, total bilirubin, total bile acid, blood urea nitrogen and triglycerides. In addition, an enzymatic activity for the following proteins was measured: alanine aminotransferase, alkaline phosphatase, aspartate aminotransferase, lactate dehydrogenase, and sorbitol dehydrogenase. Additional data file 1 details the clinical chemistry value for each of these parameters for every animal."}, "[2]": {"details": "categorical score, rat, 15 mg/kg, 6 hours, animal 5"}, "[3]": {"details": "severity score, rat, 15 mg/kg, 6 hours, animal 5"}, "[4]": {"details": "150 mg/kg, 24 hours, listed as 1, 2-Dichlorobenzene"}, "[5]": {"details": "150 mg/kg, 48 hours, listed as 1, 2-Dichlorobenzene"}, "[6]": {"details": "1500 mg/kg, 24 hours, listed as 1, 2-Dichlorobenzene"}, "[7]": {"details": "1500 mg/kg, 48 hours, listed as 1, 2-Dichlorobenzene"}}, "note": "“And” between values parts separate entries of the source, which are not always exact repeats. Identical values can stand only once. “Also recorded” adds a separate entry of the source."}
{"smiles": "Clc1ccccc1Cl", "note": "[1,2-Dichlorobenzene]", "values": [{"measurement": "Inflammation", "setting": "liver; [2]", "value": 0}, {"measurement": "Repair", "setting": "liver; [2]", "value": 0}, {"measurement": "Response to Hepatocellular Injury", "setting": "liver; [2]", "value": 0}, {"measurement": "level of hepatocellular necrosis", "setting": "liver; animal 2", "value": "did not have any observable necrosis"}, {"measurement": "level of hepatocellular necrosis", "setting": "liver; animals 1, 3, and 4", "value": "minimal"}, {"measurement": "Bile Duct Hyperplasia", "setting": "liver; [3]", "value": 0}, {"measurement": "Cellular Infiltration, Mixed Cell", "setting": "liver; [3]", "value": 0}, {"measurement": "Cellular Infiltration, Mononuclear Cell", "setting": "liver; [3]", "value": 0}, {"measurement": "Cellular Infiltration, Neutrophil", "setting": "liver; [3]", "value": 0}, {"measurement": "Centrilobular Cellular Infiltration, Mixed Cell", "setting": "liver; [3]", "value": 0}, {"measurement": "Centrilobular Cellular Infiltration, Mononuclear Cell", "setting": "liver; [3]", "value": 0}, {"measurement": "Centrilobular Cellular Infiltration, Neutrophil", "setting": "liver; [3]", "value": 0}, {"measurement": "Centrilobular Hepatocyte Degeneration", "setting": "liver; [3]", "value": 0}, {"measurement": "Centrilobular Hepatocyte Necrosis", "setting": "liver; [3]", "value": 0}, {"measurement": "Centrilobular, Hepatocyte, Midzonal Degeneration", "setting": "liver; [3]", "value": 0}, {"measurement": "Centrilobular, Hepatocyte, Midzonal Necrosis", "setting": "liver; [3]", "value": 0}, {"measurement": "Congestion", "setting": "liver; [3]", "value": 0}, {"measurement": "Depletion Glycogen", "setting": "liver; [3]", "value": 0}, {"measurement": "Focal Hepatocyte Necrosis", "setting": "liver; [3]", "value": 0}, {"measurement": "Hemorrhage", "setting": "liver; [3]", "value": 0}, {"measurement": "Hepatocyte Apoptosis", "setting": "liver; [3]", "value": 0}, {"measurement": "Hepatocyte Fatty Change", "setting": "liver; [3]", "value": 0}, {"measurement": "Hepatocyte Hypertrophy", "setting": "liver; [3]", "value": 0}, {"measurement": "Hepatocyte Necrosis", "setting": "liver; [3]", "value": 0}, {"measurement": "Hepatocyte Regeneration", "setting": "liver; [3]", "value": 0}, {"measurement": "Midzonal Centrilobular Cellular Infiltration, Mixed Cell", "setting": "liver; [3]", "value": 0}, {"measurement": "Midzonal Centrilobular Cellular Infiltration, Neutrophil", "setting": "liver; [3]", "value": 0}, {"measurement": "Midzonal Hepatocyte Necrosis", "setting": "liver; [3]", "value": 0}, {"measurement": "Mitosis", "setting": "liver; [3]", "value": 0}, {"measurement": "Portal Cellular Infiltration, Mixed Cell", "setting": "liver; [3]", "value": 0}, {"measurement": "Portal Cellular Infiltration, Neutrophil", "setting": "liver; [3]", "value": 0}, {"measurement": "% (Retic)", "setting": "whole blood", "value": 1.9, "unit": "%"}, {"measurement": "Absolute Retic", "setting": "whole blood", "value": 0.1604}, {"measurement": "Baso-phils", "setting": "whole blood", "value": 0.03}, {"measurement": "Eosino-phils", "setting": "whole blood", "value": 0.06}, {"measurement": "Hct", "setting": "whole blood", "value": 43.4, "unit": "%"}, {"measurement": "Hgb 9g/dL0", "setting": "whole blood", "value": 15, "unit": "g/dL"}, {"measurement": "LUCs (atyical)", "setting": "whole blood", "value": 0.04}, {"measurement": "Lympho-cytes", "setting": "whole blood", "value": 2.84}, {"measurement": "MCH", "setting": "whole blood", "value": 17.8, "unit": "pg"}, {"measurement": "MCV", "setting": "whole blood", "value": 51.4, "unit": "fL"}, {"measurement": "Mono-cytes", "setting": "whole blood", "value": 0.2}, {"measurement": "Neuts (Segs)", "setting": "whole blood", "value": 1.59}, {"measurement": "Platelets", "setting": "whole blood", "value": "601 1000/ul"}, {"measurement": "RBC", "setting": "whole blood", "value": 8.44, "unit": "mil/ul"}, {"measurement": "Spun Hct", "setting": "whole blood", "value": 45, "unit": "%"}, {"measurement": "WBC", "setting": "whole blood", "value": "4.77 1000/ul"}, {"measurement": "Clin/Ob Prior to Necropsy", "setting": "[1]; 15 mg/kg, 6 hours", "value": "Normal"}, {"measurement": "Gross Findings", "setting": "[1]; 15 mg/kg, 6 hours", "value": "No Gross Findings"}, {"measurement": "Clin/Ob Prior to Necropsy", "setting": "[1]; 15 mg/kg, 24 hours", "value": "normal"}, {"measurement": "Gross Findings", "setting": "[1]; 15 mg/kg, 24 hours", "value": "No Gross Findings"}, {"measurement": "Final Body Wt.", "setting": "[1]; 15 mg/kg, 24 hours, listed as 1, 2-Dichlorobenzene", "value": "225.00 g and 229.20 g and 252.70 g and 262.00 g"}, {"measurement": "Clin/Ob Prior to Necropsy", "setting": "[1]; 15 mg/kg, 48 hours", "value": "normal"}, {"measurement": "Gross Findings", "setting": "[1]; 15 mg/kg, 48 hours", "value": "No Gross Findings"}, {"measurement": "Final Body Wt.", "setting": "[1]; 15 mg/kg, 48 hours, listed as 1, 2-Dichlorobenzene", "value": "238.50 g and 244.20 g and 246.80 g and 250.10 g"}, {"measurement": "Clin/Ob Prior to Necropsy", "setting": "[1]; 150 mg/kg, 6 hours", "value": "Normal"}, {"measurement": "Gross Findings", "setting": "[1]; 150 mg/kg, 6 hours", "value": "No Gross Findings"}, {"measurement": "Clin/Ob Prior to Necropsy", "setting": "[1]; [4]", "value": "normal; also recorded: lethargic"}, {"measurement": "Final Body Wt.", "setting": "[1]; [4]", "value": "217.90 g and 205.90 g and 233.30 g and 249.00 g"}, {"measurement": "Gross Findings", "setting": "[1]; [4]", "value": "No Gross Findings; also recorded: left & median liver lobe mottled; left dark on edges"}, {"measurement": "Clin/Ob Prior to Necropsy", "setting": "[1]; 150 mg/kg, 48 hours", "value": "normal"}, {"measurement": "Final Body Wt.", "setting": "[1]; [5]", "value": "235.70 g and 244.20 g and 239.50 g and 241.90 g"}, {"measurement": "Gross Findings", "setting": "[1]; [5]", "value": "No Gross Findings; also recorded: left liver lobe rough surface"}, {"measurement": "Clin/Ob Prior to Necropsy", "setting": "[1]; 1500 mg/kg, 6 hours", "value": "Normal"}, {"measurement": "Gross Findings", "setting": "[1]; 1500 mg/kg, 6 hours", "value": "No Gross Findings"}, {"measurement": "Clin/Ob Prior to Necropsy", "setting": "[1]; [6]", "value": "lethargic; also recorded: normal"}, {"measurement": "Final Body Wt.", "setting": "[1]; [6]", "value": "207.10 g and 207.70 g and 219.70 g and 225.00 g"}, {"measurement": "Gross Findings", "setting": "[1]; [6]", "value": "left & median liver lobes mottled; left dark on edges; also recorded: No Gross Findings; also recorded: left & median liver lobes mottled; median dark on edges"}, {"measurement": "Clin/Ob Prior to Necropsy", "setting": "[1]; 1500 mg/kg, 48 hours", "value": "lethargic"}, {"measurement": "Final Body Wt.", "setting": "[1]; [7]", "value": "208.60 g and 211.10 g"}, {"measurement": "Gross Findings", "setting": "[1]; [7]", "value": "No Gross Findings; also recorded: left & median liver lobes rough surface"}, {"measurement": "ALP", "setting": "serum", "value": 269, "unit": "U/L"}, {"measurement": "ALT", "setting": "serum", "value": 54, "unit": "U/L"}, {"measurement": "AST", "setting": "serum", "value": 128, "unit": "U/l"}, {"measurement": "Alb", "setting": "serum", "value": 2.9, "unit": "g/dL"}, {"measurement": "BUN", "setting": "serum", "value": 20, "unit": "mg/dL"}, {"measurement": "CK", "setting": "serum", "value": 479, "unit": "U/L"}, {"measurement": "Chol", "setting": "serum", "value": 45, "unit": "mg/dL"}, {"measurement": "Crea", "setting": "serum", "value": 1, "unit": "mg/dL"}, {"measurement": "D.Bil", "setting": "serum", "value": 0.2}, {"measurement": "LDH", "setting": "serum", "value": 454, "unit": "U/L"}, {"measurement": "SDH", "setting": "serum", "value": 5, "unit": "U/L"}, {"measurement": "T.Bil", "setting": "serum", "value": 0.9}, {"measurement": "T.Protein", "setting": "serum", "value": 6.7, "unit": "g/dL"}, {"measurement": "Trig", "setting": "serum", "value": 195, "unit": "mg/dL"}]}
